Measurements taken from publication PMC8956739, “A synthetic lipopeptide targeting top-priority multidrug-resistant Gram-negative pathogens” (Nature Communications, 2022).
Values joined by “and” are separate entries in the source; they are usually repeats but may differ in a detail not shown here. Identical values can stand only once.

Key:
[1] = tested on: MDR clinical isolates of Enterobacterales (n = 177, 152 carbapenem-resistant); experiment: Extended MIC screening, MDR clinical isolates; format: cell-based
Experimental: MICs were determined in cation-adjusted Mueller–Hinton broth (CaMHB) by the broth micro-dilution method against ATCC strains and clinical isolates. MICs in the presence of Survanta® were determined as described above against P. aeruginosa ATCC 27853. In the 100 μL of fresh CaMHB containing polymyxins, 10% Survanta® (v/v, 2.5 mg/mL phospholipids) was added. MICs in the presence and absence of Survanta® were compared to determine the effect of binding to lung surfactant on the antibacterial activity of polymyxins.

A. baumannii AB5075 = experiment: In vitro passaging, emergence of resistance; format: cell-based, Acinetobacter baumannii
Experimental: Log-phase cultures (OD600 = 0.5, ~10^8 CFU/mL) of A. baumannii AB5075 were inoculated (1:10, v/v) in 200 μL fresh CaMHB (cation-adjusted Mueller–Hinton broth) containing 2, 8 and 16 μg/mL polymyxin B, colistin, F287, and F365 in a 96-well microplate with 4 biological replicates. The cultures were incubated at 37 °C for 12 h before the next dilution (1:10, v/v) with fresh CaMHB. Successive subculturing was conducted for 7 days.

[2] = tested on: K. pneumoniae FADDI-KP032; format: cell-based, Klebsiella pneumoniae; settings: carbapenem-resistant isolate
Procedure, shortened: (§1)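 Susceptibility: microdilution MIC in CaMHB.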

[3] = tested on: K. pneumoniae FADDI-KP065; format: cell-based, Klebsiella pneumoniae; settings: carbapenem-resistant isolate
Procedure, shortened: as §1

Substance: Polymyxin B [reference compound]
- Number of isolates ([1]; isolates with MIC 0.05 µg/mL): 0
- Number of isolates ([1]; isolates with MIC 0.125 µg/mL): 0
- Number of isolates ([1]; isolates with MIC 0.25 µg/mL): 0
- Number of isolates ([1]; isolates with MIC 0.5 µg/mL): 0
- Number of isolates ([1]; isolates with MIC 1 µg/mL): 77
- Number of isolates ([1]; isolates with MIC 2 µg/mL): 76
- Number of isolates ([1]; isolates with MIC 4 µg/mL): 2
- Number of isolates ([1]; isolates with MIC 8 µg/mL): 2
- Number of isolates ([1]; isolates with MIC 16 µg/mL): 6
- Number of isolates ([1]; isolates with MIC 32 µg/mL): 3
- Number of isolates ([1]; isolates with MIC 64 µg/mL): 6
- Number of isolates ([1]; isolates with MIC >64 µg/mL): 5
- regrowth observed from day (A. baumannii AB5075): 3 days
- OD600 (A. baumannii AB5075; 8 ug/mL, time 0 h, passage 0, replicates rep1-rep4, raw OD600 (blank OD600 0.125333)): 0.153 and 0.134 and 0.139 and 0.14
- OD600 (A. baumannii AB5075; 8 ug/mL, time 12 h, passage 1, replicates rep1-rep4, raw OD600 (blank OD600 0.114667)): 0.127 and 0.115 and 0.123 and 0.124
- OD600 (A. baumannii AB5075; 8 ug/mL, time 24 h, passage 2, replicates rep1-rep4, raw OD600 (blank OD600 0.0956667)): 0.086 and 0.093 and 0.096 and 0.083
- OD600 (A. baumannii AB5075; 8 ug/mL, time 36 h, passage 3, replicates rep1-rep4, raw OD600 (blank OD600 0.088)): 0.088 and 0.089 and 0.094 and 0.092
- OD600 (A. baumannii AB5075; 8 ug/mL, time 48 h, passage 4, replicates rep1-rep4, raw OD600 (blank OD600 0.104667)): 0.096 and 0.099 and 0.098 and 0.101
- OD600 (A. baumannii AB5075; 8 ug/mL, time 60 h, passage 5, replicates rep1-rep4, raw OD600 (blank OD600 0.122333)): 0.108 and 0.105 and 0.103 and 0.116
- OD600 (A. baumannii AB5075; 8 ug/mL, time 72 h, passage 6, replicates rep1-rep4, raw OD600 (blank OD600 0.095)): 0.092 and 0.093 and 0.083 and 0.091
- OD600 (A. baumannii AB5075; 8 ug/mL, time 84 h, passage 7, replicates rep1-rep4, raw OD600 (blank OD600 0.091)): 0.1 and 0.081 and 0.084 and 0.089
- OD600 (A. baumannii AB5075; 8 ug/mL, time 96 h, passage 8, replicates rep1-rep4, raw OD600 (blank OD600 0.0953333)): 0.192 and 0.105 and 0.119 and 0.106
- OD600 (A. baumannii AB5075; 8 ug/mL, time 108 h, passage 9, replicates rep1-rep4, raw OD600 (blank OD600 0.100667)): 0.179 and 0.108 and 0.11 and 0.118
- OD600 (A. baumannii AB5075; 8 ug/mL, time 120 h, passage 10, replicates rep1-rep4, raw OD600 (blank OD600 0.0983333)): 0.215 and 0.139 and 0.136 and 0.132
- OD600 (A. baumannii AB5075; 8 ug/mL, time 132 h, passage 11, replicates rep1-rep4, raw OD600 (blank OD600 0.0843333)): 0.198 and 0.19 and 0.197 and 0.21
- OD600 (A. baumannii AB5075; 8 ug/mL, time 144 h, passage 12, replicates rep1-rep4, raw OD600 (blank OD600 0.091)): 0.2 and 0.22 and 0.217 and 0.231
- OD600 (A. baumannii AB5075; 8 ug/mL, time 156 h, passage 13, replicates rep1-rep4, raw OD600 (blank OD600 0.129)): 0.176 and 0.181 and 0.195 and 0.201
- time to emergence of resistance (A. baumannii AB5075; 4× MIC, 7-day passaging): ≤ 3 days
- growth over 7 days (A. baumannii AB5075; 32× MIC): No growth
- OD600 (A. baumannii AB5075; in vitro passaging, concentration 8 ug/mL, time 168 h, passage 14, individual replicates rep1-rep4, not blank-subtracted (blank OD600 0.101)): 0.177 and 0.182 and 0.195 and 0.205
- MIC K. pneumoniae FADDI-KP032 [2]: 0.5 µg/mL
- MIC K. pneumoniae FADDI-KP065 [3]: 0.25 µg/mL
